# Assay results reported in patent US12496267B2, “Extract of organic humified materials” (priority 2019, dated 2025).
# What was measured:
# IL-6 = experiment: Inflammation: reconstructed human epidermis/PBMC, MSD U-PLEX, IL-6; assay type: cell-based
# Procedure: (§1) Potential immune modulatory effects were determined on reconstructed human epidermis (RHE) using a 3D Skin Modell (Cell systems). In the first step the skin patches are stimulated with specific controls and stimuli for a defined time period. In this context it had to be considered that different stimuli require different incubation times. The incubation with heat inactivated C.acnes (10^7 cells/approach) as well as the direct incubation with the test substances (AHE/FA/BIS) was performed for 16h at 37° C. The AHE test substances comprised AHE solutions, comprising either 1%, 2% or 5% AHE in PBS, generated as described in Example 8. The incubation with the positive control (5% SDS) was performed for 20 min (37° C.). After the primary stimulation step skin patches were washed (PBS 3×300 μl) and subjected to a regeneration phase (24h/37° C.) in presence of the indicated substances (CM/AHE/FA/CH/BIS). After this incubation phase the culture medium of each approach was isolated and used to stimulate human PBMCs. Hereby 100 μl of the RHE culture was added cultures of human PBMCs (1×10^6 cells in 300 μl culture medium) and incubated for additional 16 h (37° C.). After this incubation step, PBMCs were separated by centrifugation and the supernatant was saved for the MSD multiplexing platform. In parallel the cells of the RHE culture were subjected to cell lysis (1% SDS, 30 min/4° C. agitation). Cell extracts were saved for the MSD multiplexing platform.
# (§2) Using the MSD U-PLEX it is possible to create an individualized multiplex assays for any combination of analytes. Hereby biotinylated capture reagents are coupled to U-PLEX Linkers. The U-PLEX Linkers then self-assemble onto unique spots on the U-PLEX plate. After analytes in the sample bind to the capture reagents, detection antibodies conjugated with electro-chemiluminescent labels (MSD GOLD SULFO-TAG) bind to the analytes to complete the sandwich immunoassay. Using this technology, the following markers were immobilized:
# (§3) U-PLEX Human IFN-γ, U-PLEX Human IL-16, U-PLEX Human IL-2, U-PLEX Human IL-4, U-PLEX Human IL-5, U-PLEX Human IL-6, U-PLEX Human IL-8, U-PLEX Human IL-12p70, U-PLEX Human IL-13, U-PLEX Human IL-17A, U-PLEX Human IL-17F, U-PLEX Human IL-22, U-PLEX Human IL-23, U-PLEX Human TNF-α. U-PLEX Human TGF-β1. All steps were performed according to the supplier's protocol.
# (§4) As described above, the Reconstructed human epidermis (RhE) was stimulated with the indicated substances and stimuli (Sample # Description, Tables 11-21) for 16 h. Upon this step the RhE was washed and in incubated in a second line with the indicated substances or culture medium. As controls, the RhE was treated in the first line with PBS and subsequently with culture medium. As further controls the PBMCs were treated with culture medium alone, with heat inactivated C. acnes and with pooled supernantant (SN) of the RhEs before stimulation. For Mesoscale analysis, the supernatant of the PBMC culture (PBMCs) was compared with a cell extract of the RhE prepared after the individual incubation steps (RhEs) and the supernatant of the RhEs after the stimulation steps (SN RhEs). RhE treated in the first and second line with culture medium (Rhe NC) can be used as negative control in all settings.
# IL-13 = experiment: Inflammation: reconstructed human epidermis/PBMC, MSD U-PLEX, IL-13; assay type: cell-based; conditions: PBMCs (supernatant)
# Procedure: as §1
# as §2, with “immobilized: […]” for “immobilized:”
# IL-1β = experiment: Inflammation: reconstructed human epidermis/PBMC, MSD U-PLEX, IL-1β; assay type: cell-based
# Procedure: as §1, §2, §3, §4
# IL-12p70 = experiment: Inflammation: reconstructed human epidermis/PBMC, MSD U-PLEX, IL-12p70; assay type: cell-based
# Procedure: as §1, §2, §3
# As described above, the Reconstructed human epidermis (RhE) was stimulated with the indicated substances and stimuli (Sample # Description, Tables 11-21) for 16 h. Upon this step the RhE was washed and in incubated in a second line with the indicated substances or culture medium. As controls, the RhE was treated in the first line with PBS and subsequently with culture medium. […]
# IL-4 = experiment: Inflammation: reconstructed human epidermis/PBMC, MSD U-PLEX, IL-4; assay type: cell-based; conditions: PBMCs (supernatant)
# Procedure: as §1
# as §2, with “immobilized: […]” for “immobilized:”
# IL-5 = experiment: Inflammation: reconstructed human epidermis/PBMC, MSD U-PLEX, IL-5; assay type: cell-based
# Procedure: as §1, §2, §3, §4
# IFN-γ = experiment: Inflammation: reconstructed human epidermis/PBMC, MSD U-PLEX, IFN-γ; assay type: cell-based
# Procedure: as §1, §2, §3, §4
# IL-8 = experiment: Inflammation: reconstructed human epidermis/PBMC, MSD U-PLEX, IL-8; assay type: cell-based
# Procedure: as §1, §2, §3, §4
# TNFα = experiment: Inflammation: reconstructed human epidermis/PBMC, MSD U-PLEX, TNFα; assay type: cell-based
# Procedure: as §1, §2, §3, §4
# Paxillin = experiment: Western blot of Paxillin in scratched HaCat cells; assay type: cell-based, human; conditions: comparators: EGF; Fulvic Acid (1% per FIG. 10)
# Procedure: (§5) FIG. 10: HaCat cells were cultured as described. 72h after mechanical disruption, cells were lysed (PBS/1% Triton X100, 30 min, 4° C.) and subsequently subjected to SDS-PAGE/Western Blotting. Cell adhesion markers were determined with specific antibodies directed towards cell adhesion markers E-Cadherin and Paxillin. Reactivities were normalized using an antibody directed against the housekeeping protein Actin.
# as §5, with “11:” for “10:”, “Paxillin.” for “Paxillin. Reactivities were normalized using an antibody directed against the housekeeping protein Actin.”
# A human Keratinocyte cell line (HaCat) was cultivated in 6 well plates to reach a dense cell layer. Subsequently the monolayer was injured with a mechanical device leading to a cross formed scratch in the monolayer. […] The ingrowth of cells was monitored/documented for another 72 hours to the point where the cross formed injury of the monolayer was recovered with cells. […] Subsequently cell extracts were analysed by SDS-PAGE/Western Blotting using antibodies directed towards the […] markers E-Cadherin and Paxillin (FIG. 10 and FIG. 11). […]
# Keratin 16 = experiment: Skin barrier: Western blot of Cytokeratin 16 in HaCat 3-dimensional culture; assay type: cell-based, human
# Procedure: FIG. 14: Western Blot Analysis with anti-Cytokeratin 16 was performed as described. The primary antibody (Keratin 16 (KRT16): Cusabio Technology CSB-PA012515LA01Hu) was used in a dilution of 1:500. After the primary incubation step binding of the primary antibody was visualized with an anti-rabbit-IG conjugated to horse raddish peroxidase. Detection of Cytokeratin-16 with an apparent MW of 51 kDa was visualized using the ECL Technology in combination with a BioRad Gel documentation system.
# (§6) To determine the effects of the Alpine Heilmoor Extract on the stability of the membrane barrier, human Keratinocytes (HaCat) were analysed in a 3-dimensional cell culture system. Hereby, cells (5×10^4/insert) were seeded on culture inserts of the system and cultivated in 24 well plates for 14 days with medium exchange in 3-day intervals and permanent monitoring of the TEER value. Reaching a constant TEER value cells were stimulated with heat inactivated C. acnes (10^7 cells/well) for 16 h. Subsequently, cells were washed and incubated with described 2nd line substances (i.e. AHE solutions, comprising either 1%, 2% or 5% AHE in PBS, generated as described in Example 8) for 24 hours. […]
# (§7) Effects of the indicated stimuli/second line substances were evaluated by determination of the expression levels of membrane markers Cytokeratin 10/Cytokeratin 16/Fillagrin and Ki67. […]
# [1] = tested on: human Keratinocyte cell line (HaCat); experiment: Wound healing: scratch of HaCat keratinocyte monolayer, regeneration over 72 h; assay type: cell-based; conditions: EGF 10 ng/ml; within 72 hours
# Procedure: A human Keratinocyte cell line (HaCat) was cultivated in 6 well plates to reach a dense cell layer. Subsequently the monolayer was injured with a mechanical device leading to a cross formed scratch in the monolayer. Upon scratching cells were washed once with PBS and treated with the test substances outlined above as well as with appropriate controls. The ingrowth of cells was monitored/documented for another 72 hours to the point where the cross formed injury of the monolayer was recovered with cells. At that point cells were washed and harvested. Cell extracts were generated by treatment with PBS/1% Triton X100 (30 min on ice). Subsequently cell extracts were analysed by SDS-PAGE/Western Blotting using antibodies directed towards the […] markers E-Cadherin and Paxillin (FIG. 10 and FIG. 11).
# Cells were treated with AHE solutions, comprising either 1% or 5% AHE in PBS (phosphate buffered saline). The dry extract was generated as described in Example 1, and then dissolved in PBS at 37° C. for 72 hours using a weight/volume ratio of 0.1 g/mL, 0.2 g/mL or 0.5 g/mL, respectively.
# For comparison, cells were also treated with Fulvic Acid and Charcoal, EGF was used as positive control, Medium without active substance was used as negative control.
# Keratin 10 = experiment: Skin barrier: Western blot of Cytokeratin 10 in HaCat 3-dimensional culture; assay type: cell-based, human; conditions: positive control EGF
# Procedure: FIG. 13: Western Blot Analysis with anti-Cytokeratin 10 was performed as described. The primary antibody (Keratin 10 (KRT10): Cusabio Technology CSB-PA445987) was used in a dilution of 1:1000. After the primary incubation step binding of the primary antibody was visualized with an anti-rabbit-IG conjugated to horse raddish peroxidase. Detection of Cytokeratin-10 with an apparent MW of 58 kDa was visualized using the ECL Technology in combination with a BioRad Gel documentation system.
# as §6, §7
# [2] = tested on: human colorectal cells (CaCo2); experiment: Membrane barrier enhancement: TEER of CaCo2 3-dimensional culture; assay type: cell-based; conditions: EGF
# Procedure: To determine the effects of the test substances on the stability on the human gut barrier, human colorectal cells (CaCo2) were analysed in a 3-diemsional cell culture system. Cells (5×10^4/insert) were seeded on culture inserts of the system and cultivated in 24 well plates for 14 days with medium exchange in 3-day intervals and permanent monitoring of the TEER value. […] Subsequently, cells were washed and incubated with described 2nd line substances (i.e. AHE solutions, comprising either 1%, 2% or 5% AHE in PBS, generated as describe din Example 8) for 24 hours. After this step cells were washed and cell extracts were prepared by incubation with PBS/1% Triton X100. Cell extracts are ready for SDS-PAGE/Western Blotting.
# [3] = PBMCs (supernatant), RhE C. acnes-stimulated, then substance, 1%
# [4] = PBMCs (supernatant), RhE without C. acnes, 1%
# [5] = SN RhEs, RhE C. acnes-stimulated, then substance, 1%
# [6] = SN RhEs, RhE without C. acnes, 1%
# [7] = RhE C. acnes-stimulated, then substance, 1%
# [8] = RhEs (cell extract), RhE without C. acnes, 1%
# [9] = PBMCs (supernatant), RhE 5% SDS, then culture medium
# [10] = SN RhEs, RhE 5% SDS, then culture medium
# [11] = RhE 5% SDS, then culture medium
compound,measurement,setting,value
CC(C)=CCC[C@](C)(O)C1CC=C(C)CC1 (stereo partly shown) [Bisabolol],IL-6 concentration,IL-6; [3],13038.0 pg/mL
same,IL-6 concentration,IL-6; [4],12302.5 pg/mL
same,IL-6 concentration,IL-6; [5],75.1 pg/mL
same,IL-6 concentration,IL-6; [6],30.8 pg/mL
same,IL-13 concentration,IL-13; [7],186.6 pg/mL
same,IL-13 concentration,"IL-13; RhE without C. acnes, 1%",157.9 pg/mL
same,IL-1β concentration,IL-1β; [3],1525 pg/mL
same,IL-1β concentration,IL-1β; [4],1277 pg/mL
same,IL-1β concentration,IL-1β; [5],8.5 pg/mL
same,IL-1β concentration,IL-1β; [6],5.4 pg/mL
same,IL-12p70 concentration,IL-12p70; [3],69.9 pg/mL
same,IL-12p70 concentration,IL-12p70; [4],51.3 pg/mL
same,IL-12p70 concentration,IL-12p70; [5],3.3 pg/mL
same,IL-4 concentration,IL-4; [7],10.1 pg/mL
same,IL-4 concentration,"IL-4; RhE without C. acnes, 1%",9.1 pg/mL
same,IL-5 concentration,IL-5; [3],24.1 pg/mL
same,IL-5 concentration,IL-5; [4],18.2 pg/mL
same,IL-5 concentration,IL-5; [5],1.1 pg/mL
same,IL-5 concentration,IL-5; [6],0.0 pg/mL
same,INF-y concentration,IFN-γ; [3],124.4 pg/mL
same,INF-y concentration,IFN-γ; [4],90.5 pg/mL
same,INF-y concentration,IFN-γ; [8],8.3 pg/mL
same,INF-y concentration,IFN-γ; [5],13.9 pg/mL
same,IL-8 concentration,IL-8; [3],43765.9 pg/mL
same,IL-8 concentration,IL-8; [4],44123.3 pg/mL
same,IL-8 concentration,"IL-8; RhEs (cell extract), RhE C. acnes-stimulated, then substance, 1%",58.1 pg/mL
same,IL-8 concentration,IL-8; [8],68.9 pg/mL
same,IL-8 concentration,IL-8; [5],4317.3 pg/mL
same,IL-8 concentration,IL-8; [6],2459.3 pg/mL
same,TNFα concentration,TNFα; [3],51.6 pg/mL
same,TNFα concentration,TNFα; [4],29.8 pg/mL
same,TNFα concentration,TNFα; [5],8.6 pg/mL
same,TNFα concentration,TNFα; [6],17.1 pg/mL
"CCCCCCCCCCCCOS(=O)(=O)[O-].[Na+] [Rhe PC, SDS]",IL-6 concentration,IL-6; [9],12909.3 pg/mL
same,IL-6 concentration,IL-6; [10],0.3 pg/mL
same,IL-13 concentration,IL-13; [11],220.6 pg/mL
same,IL-1β concentration,IL-1β; [9],1133 pg/mL
same,IL-12p70 concentration,IL-12p70; [9],63.0 pg/mL
same,IL-4 concentration,IL-4; [11],9.0 pg/mL
same,IL-5 concentration,IL-5; [9],25.4 pg/mL
same,IL-5 concentration,IL-5; [10],1.0 pg/mL
same,INF-y concentration,IFN-γ; [9],114.7 pg/mL
same,IL-8 concentration,IL-8; [9],43111.6 pg/mL
same,IL-8 concentration,"IL-8; RhEs (cell extract), RhE 5% SDS, then culture medium",33.5 pg/mL
same,IL-8 concentration,IL-8; [10],77.2 pg/mL
same,TNFα concentration,TNFα; [9],24.0 pg/mL
EGF: positive control (10 ng/ml in Example 8),expression of cell adhesion molecule Paxillin,Paxillin,also observed
same,Cytokeratin 16 specific band (51 kDa),Keratin 16; EGF,detected
same,anti-Cytokeratin 16 reactive protein complex at about 75 kDa,Keratin 16; positive control EGF,visible
same,regeneration of scratched keratinocyte monolayer,[1],regenerated well
same,Cytokeratin 10 band (58 kDa),Keratin 10,induction
same,TEER value,[2]; D15 (1 d after stimulation with IL1alpha/TNF-alpha),4800 Ω/cm^2
same,TEER value,[2]; D15 (non stimulated controls),4000 Ω/cm^2
same,TEER value,[2]; D17 (after regeneration phase with extracts: non stimulated controls),7200 Ω/cm^2
same,TEER value,[2]; D17 (after regeneration phase with extracts: stimulated skin),9600 Ω/cm^2
